{"source": "paper PMC7570844", "about": "“Skin Damages—Structure Activity Relationship of Benzimidazole Derivatives Bearing a 5-Membered Ring System” (Molecules, 2020)", "key": {"[1]": {"system": "Respiratory syncytial virus", "experiment": "microbe, parasite or virus in culture", "type": "cell-based", "conditions": "human respiratory syncytial virus, HeLa cells, read-out: Antiviral EC50"}, "[2]": {"system": "HEK293T (Normal Kidney Epithelial Cells)", "experiment": "Cell proliferation inhibition, non-cancer control cells", "conditions": "Homo sapiens, HEK-293T"}, "[3]": {"system": "vesicular stomatitis virus", "experiment": "microbe, parasite or virus in culture", "type": "cell-based", "conditions": "HeLa, read-out: Antiviral EC50"}, "HeLa cell cultures": {"system": "HeLa cell cultures", "conditions": "human"}, "[4]": {"system": "human cervical carcinoma cells (HeLa)", "experiment": "Cell proliferation inhibition"}, "[5]": {"experiment": "Ferric reducing antioxidant power (FRAP) test", "conditions": "mean ± SEM"}, "Adeno virus-2": {"system": "Adeno virus-2", "experiment": "Antiviral activity in HEL cell cultures (CPE, MTS)", "type": "cell-based", "conditions": "Adeno virus-2, HEL cells"}, "Microsporum gypseum": {"system": "Microsporum gypseum", "experiment": "Antidermatophyte plaque growth inhibition", "type": "cell-based", "conditions": "Nannizzia gypsea; M. gypseum, 100 µg/mL; '+' has no key; read-out: Percent growth inhibition"}, "Epidermophyton floccosum": {"system": "Epidermophyton floccosum", "experiment": "Antidermatophyte plaque growth inhibition", "type": "cell-based", "conditions": "E. floccosum, 100 µg/mL, '+' has no key, read-out: Percent growth inhibition"}, "Coxsackie virus B4": {"system": "Coxsackie virus B4", "experiment": "Antiviral activity in HeLa cell cultures (CPE, MTS)", "type": "cell-based", "conditions": "Enterovirus B; Coxsackie virus B4, HeLa cells"}, "vaccinia virus": {"system": "vaccinia virus", "experiment": "microbe, parasite or virus in culture", "type": "cell-based", "conditions": "Orthopoxvirus vaccinia, HEL, read-out: Antiviral EC50"}, "Human Coronavirus (229E)": {"system": "Human Coronavirus (229E)", "experiment": "microbe, parasite or virus in culture", "type": "cell-based", "conditions": "HEL, read-out: Antiviral EC50"}, "[6]": {"experiment": "DPPH radical scavenging test", "conditions": "tested at 1 mg/mL; mean ± SEM"}, "Microsporum canis": {"system": "Microsporum canis", "experiment": "Antidermatophyte plaque growth inhibition", "type": "cell-based", "conditions": "M. canis, 100 µg/mL, '+' has no key, read-out: Percent growth inhibition"}, "[7]": {"system": "herpes simplex virus-2 (G)", "experiment": "Antiviral activity in HEL cell cultures (CPE, MTS)", "type": "cell-based", "conditions": "Human alphaherpesvirus 2; Herpes simplex virus-2, HEL cells"}, "[8]": {"system": "human embryonic lung (HEL) cell cultures"}, "[9]": {"system": "human pancreatic carcinoma cells (Mia Paca-2)", "experiment": "Cell proliferation inhibition"}, "[10]": {"experiment": "UV filtering parameters of compounds in solution (MeOH, 290-400 nm)"}, "[11]": {"system": "herpes simplex virus-1 (KOS)", "experiment": "Antiviral activity in HEL cell cultures (CPE, MTS)", "type": "cell-based", "conditions": "Human alphaherpesvirus 1, HEL cells"}, "[12]": {"system": "human T-lymphocyte cells (CEM)", "experiment": "Cell proliferation inhibition"}, "[13]": {"system": "herpes simplex virus-1 TK-KOS ACVr", "experiment": "microbe, parasite or virus in culture", "type": "cell-based", "conditions": "Human alphaherpesvirus 1, HEL, read-out: Antiviral EC50"}, "Trichophyton tonsurans": {"system": "Trichophyton tonsurans", "experiment": "Antidermatophyte plaque growth inhibition", "type": "cell-based", "conditions": "T. tonsurans, 100 µg/mL, '+' has no key, read-out: Percent growth inhibition"}, "[14]": {"system": "Trichophyton mentagrophytes", "experiment": "Antidermatophyte plaque growth inhibition", "type": "cell-based", "conditions": "T. mentagrophytes, 100 µg/mL, '+' has no key, read-out: Percent growth inhibition"}, "[15]": {"system": "human melanoma cells (SK-Mel 5)", "experiment": "Cell proliferation inhibition"}}}
{"smiles": "O=S(=O)(O)c1ccc2[nH]c(-c3ccco3)nc2c1", "note": "[Compound 8, 2-(furan-2-yl)-1H-benzimidazole-5-sulfonic Acid]", "values": [{"measurement": "EC50", "setting": "[1]", "value": "> 100", "unit": "µM"}, {"measurement": "IC50", "setting": "[2]", "value": "> 100", "unit": "µM"}, {"measurement": "EC50", "setting": "[3]", "value": "> 100", "unit": "µM"}, {"measurement": "Cytotoxic concentration", "setting": "HeLa cell cultures", "value": "> 100", "unit": "µM"}, {"measurement": "IC50", "setting": "[4]", "value": "≥ 100", "unit": "µM"}, {"measurement": "FRAP", "setting": "[5]", "value": "<LOQ *"}, {"measurement": "EC50", "setting": "Adeno virus-2", "value": "> 100", "unit": "µM"}, {"measurement": "inhibition at 100 µg/mL", "setting": "Microsporum gypseum", "value": "8 ± 2.44", "unit": "%"}, {"measurement": "inhibition at 100 µg/mL", "setting": "Epidermophyton floccosum", "value": "< 0", "unit": "%"}, {"measurement": "EC50", "setting": "Coxsackie virus B4", "value": "> 100", "unit": "µM"}, {"measurement": "EC50", "setting": "vaccinia virus", "value": "> 100", "unit": "µM"}, {"measurement": "EC50", "setting": "Human Coronavirus (229E)", "value": "> 100", "unit": "µM"}, {"measurement": "DPPH (% Inhibition)", "setting": "[6]", "value": "10.96 ± 0.56", "unit": "%"}, {"measurement": "inhibition at 100 µg/mL", "setting": "Microsporum canis", "value": "< 0", "unit": "%"}, {"measurement": "EC50", "setting": "[7]", "value": "> 100", "unit": "µM"}, {"measurement": "Cytotoxic concentration", "setting": "[8]", "value": "> 100", "unit": "µM"}, {"measurement": "melting point", "value": "> 250", "unit": "°C"}, {"measurement": "IC50", "setting": "[9]", "value": "≥ 100", "unit": "µM"}, {"measurement": "SPF", "setting": "[10]", "value": "10.96±0.54"}, {"measurement": "UVA/UVB", "setting": "[10]", "value": 0.29}, {"measurement": "UVAPF", "setting": "[10]", "value": "1.33±0.05"}, {"measurement": "λc (critical wavelength)", "setting": "[10]", "value": 342, "unit": "nm"}, {"measurement": "EC50", "setting": "[11]", "value": "> 100", "unit": "µM"}, {"measurement": "IC50", "setting": "[12]", "value": "> 100", "unit": "µM"}, {"measurement": "EC50", "setting": "[13]", "value": "> 100", "unit": "µM"}, {"measurement": "inhibition at 100 µg/mL", "setting": "Trichophyton tonsurans", "value": "< 0", "unit": "%"}, {"measurement": "inhibition at 100 µg/mL", "setting": "[14]", "value": "< 0", "unit": "%"}, {"measurement": "IC50", "setting": "[15]", "value": "≥ 100", "unit": "µM"}]}
